# From PMC4277619, “Design, Synthesis and Cytotoxicity Evaluationof New 1,2-diaryl-4, 5, 6, 7-Tetrahydro-1H-benzo[d] Imidazolesas Tubulin Inhibitors” (Iranian Journal of Pharmaceutical Research : IJPR, 2015)
# What was measured:
# [1] = test system: Fibroblast; assay: MTT assay, cytotoxicity against normal fibroblast cells; type: cell-based; conditions: Homo sapiens, 24 h incubation
# Description: (§1) Fibroblast, MCF7 (human breast cancer), HEPG2 (human liver carcinoma), A549 (human lung cancer) and T47D (human breast cancer) cell lines were purchased from Pasteur Institute, Tehran, Iran. The cells were grown in RPMI1640 medium at 37 °C under 5% CO2 supplemented with 10% heat inactivated fetal bovine serum (FBS), 100 U/mL penicillin and 100 µg/mL streptomycin. Cell viability was evaluated using MTT method which is based on the reduction of 3-(4,5-dimethylthiazol-2-yl)-2,5-diphenyltetrazolium bromide (MTT) dye to purple formazan crystals by mitochondrial succinate dehydrogenase enzyme in living cells. The cells were seeded into 96-well plates at a concentration of 6000 cells/well and allowed to incubate for 24 h. The medium was then discarded and different concentrations of the test compounds dissolved in complete medium, were added to each well. After further incubation for 24 h at 37 °C, the medium was aspirated and 100 µL MTT (2 mg/mL) was added to the wells and incubated for 3 h at 37 °C. The produced formazan crystals were dissolved in 100 µL of DMSO. Plates were incubated for 20 min at 37 °C and the optical densities were read at 570 nm with a reference wavelength of 630 nm as background using a spectrophotometer plate reader (Infinite® M200, TECAN). Colchicine was used as positive control and DMSO as the solvent of the test compounds and its final concentration was less than 0.2%. IC50 was calculated by calibration curve using Prism software. All the tests were performed in triplicates.
# [2] = test system: MCF-7; assay: MTT assay, cytotoxicity against MCF-7 breast cancer cells; type: cell-based, human; conditions: for IC50: Homo sapiens, MCF7, MCF-7 cells, 24 h incubation, MTT; for SI MCF-7: selectivity index = IC50 Fibroblast / IC50 MCF-7
# Description: as §1
# [3] = test system: A549; assay: MTT assay, cytotoxicity against A549 lung cancer cells; type: cell-based, human; conditions: for IC50: Homo sapiens, A549 cells, 24 h incubation, MTT; for SI A549: selectivity index = IC50 Fibroblast / IC50 A549
# Description: as §1
# [4] = test system: HEPG2; assay: MTT assay, cytotoxicity against HEPG2 liver carcinoma cells; type: cell-based, human; conditions: for IC50: Homo sapiens, HEPG2 cells, 24 h incubation, MTT; for SI HEPG2: selectivity index = IC50 Fibroblast / IC50 HEPG2
# Description: as §1
# [5] = test system: T47D; assay: MTT assay, cytotoxicity against T47D breast cancer cells; type: cell-based, human; conditions: for IC50: Homo sapiens, T47D cells, 24 h incubation, MTT; for SI T47D: selectivity index = IC50 Fibroblast / IC50 T47D
# Description: as §1
SMILES,melting point,IC50 [1],IC50 [2],SI MCF-7 [2],IC50 [3],SI A549 [3],IC50 [4],SI HEPG2 [4],IC50 [5],SI T47D [5]
"COc1ccc(-n2c(-c3cc(OC)c(OC)c(OC)c3)nc3c2CCCC3)cc1 [Compound 7a, 1-(4-Methoxyphenyl)-2-(3,4,5-trimethoxyphenyl)-4,5,6,7-tetrahydro-1H-benzoimidazole]",110 to 111 °C,28.5 µM,54.8 µM,0.52,83.6 µM,0.34,22.5 µM,1.26,41.1 µM,0.69
"COc1cccc(-n2c(-c3cc(OC)c(OC)c(OC)c3)nc3c2CCCC3)c1 [Compound 7b, 1-(3-Methoxyphenyl)-2-(3,4,5-trimethoxyphenyl)-4,5,6,7-tetrahydro-1H-benzoimidazole]",,> 100 µM,> 100 µM,,30.4 µM,,> 100 µM,,> 100 µM,
"COc1cc(-c2nc3c(n2-c2cccc(Cl)c2)CCCC3)cc(OC)c1OC [Compound 7f, 1-(3-Chlorophenyl)-2-(3,4,5-trimethoxyphenyl)-4,5,6,7-tetrahydro-1H-benzoimidazole]",,87.3 µM,77.9 µM,1.12,> 100 µM,,43.8 µM,2,58.6 µM,1.5

# Further lines, with some results ahead:
melting point,SMILES,IC50 [1],IC50 [2],SI MCF-7 [2],IC50 [3],SI A549 [3],IC50 [4],SI HEPG2 [4],IC50 [5],SI T47D [5]
152 to 154 °C,"COc1cc(-c2nc3c(n2-c2ccc(F)cc2)CCCC3)cc(OC)c1OC [Compound 7d, 1-(4-Fluorophenyl)-2-(3,4,5-trimethoxyphenyl)-4,5,6,7-tetrahydro-1H-benzoimidazole]",59.5 µM,62.3 µM,0.95,86.5 µM,0.68,19.4 µM,3.06,30 µM,2
157 to 158 °C,"COc1cc(-c2nc3c(n2-c2ccc(Cl)cc2)CCCC3)cc(OC)c1OC [Compound 7e, 1-(4-Chlorophenyl)-2-(3,4,5-trimethoxyphenyl)-4,5,6,7-tetrahydro-1H-benzoimidazole]",54 µM,36.4 µM,1.48,87 µM,0.62,15.6 µM,3.46,34.5 µM,1.6
259 to 260 °C,"COc1cc(-c2nc3c(n2-c2ccc(O)cc2)CCCC3)cc(OC)c1OC [Compound 7c, 4-[2-(3,4,5-Trimethoxyphenyl)-4,5,6,7-tetrahydro-1H-benzoimidazole-1-yl]-phenol]",80.8 µM,> 100 µM,,> 100 µM,,19.6 µM,4.11,41.2 µM,2
